This note sets out measurements from patent US20240254135A1, “POLYPHENOL COMPOUNDS” (Epirium Bio Inc., priority 2022, published 2024).

Data set [1] can be described thus: Pharmacokinetics: quantitative determination in mice brains (LCMS). It is filed as in vivo, C57BL/6 Mice. Particulars: mice brain, 10 mg/kg PO single dose, 10% NMP vehicle; for Tmax: C57BL/6, mouse. The protocol: C57BL/6 Mice, Age 7-9 weeks, body weight range 20-25 g were used. The mice were fasted overnight. Mice were dosed once a day for a single day at 10 mg/kg, 10 mg/kg. 6 time-points were used for whole blood. 10% NMP was used as a vehicle. 9 animals were used per treatment, with three groups of three animals each. Group 1 had time points at 15 and 60 minutes, Group 2 had time points at 30 and 120 minutes, and Group 3 had time points at 90 and 240 minutes. An Oral (PO) route was used. Plasma and brain samples were collected (brain sample collected at terminal time point). Plasma was collected through the centrifugation of whole blood at 10,000 rpm for 10 minutes at 4° C. Samples were stored at −80° C. until processing.
1.00 mg/mL in 100% MeOH PP vials (prepared at RT yellow light) at 2-8° C. were used as stock solution. 12.22-50000 ng/mL using 80% MeOH PP vials (prepared at RT yellow light) at 2-8° C. were used as working solution. 0.48-2000 ng/ml (prepared at RT yellow light) was used for the curve range. For Compounds 75b and 78a, 1.00 mg/mL of Compound 79 in 100% methanol Ria vials (Prepared at RT yellow light) was used as IS stock solution, and 60 ng/ml of Compound 79 in 80% methanol (Prepared at RT yellow light) was used as IS working solution. For Compound 76b, 1.00 mg/mL of Compound 44 in 100% methanol Ria vials (Prepared at RT yellow light) was used as IS stock solution, and 60 ng/ml of Compound 44 in 80% methanol (Prepared at RT yellow light) was used as IS working solution. A linear, 1/x2 fit type was used. The injection volume was 15 μL. Mobile Phase A was 0.1% Formic Acid in water at room temperature. Mobile Phase B was 100% methanol at room temperature. R0 wash solution was 80% methanol at room temperature. R^3 wash solution was IPA/MeOH/ACN/water (1:1:1:1) at room temperature. The column was Agilent Eclipse 50*2.1 mm 1.8 μm and the instrument was Shimadzu LC-40 UPLC and AB Sciez 6500+ with LCMS002.
For Compound 75b, 100 mg of brain tissue were weighed, 400 μL of Ice cold PBS was added, and the sample was homogenated using a polytron homogenizer. Before starting the experiment the blade was cleaned with NS, Methanol, Methanol:Water (50:50) followed by NS. Using a pipette with Methanol-rinsed pipette tips, 50 μL of each sample (calibration curve sample, QC samples and blank matrix) was aliquot to labeled 12×75-mm glass tubes. Using Methanol-rinsed pipette tips, 5.0 μL of IS of conc. 60 ng (Compound 79) was added to each standard and samples except Blank. All tubes were mixed on a multi-tube vortex for approximately 30 seconds. 1 ml of Ethyl Acetate was added. All tubes were mixed on a multi-tube vortex for approximately 5 minutes then centrifuged for 10 min at 5,000 rpm, 4° C. The sample was kept in methanol containing dry ice for few seconds to freeze the Aqueous layer (flash freeze method). The upper organic layer was poured from the frozen tubes into the labeled 12×75-mm glass tubes then evaporated to dryness under nitrogen using Liquid Evaporator (30° C., −15 psi, ˜ 10 mins). 200 μl of reconstitution solution (10 mM Ammonium Formate:MeOH (40:60 v/v) was added into each tube, which was then vortexed for 30 seconds and transferred to amber glass injection vials for injection. At the terminal time points, animals were euthanized after blood sample collection. Their skulls were opened and whole brains were separated and collected in previously labeled tubes. The tubes were then immediately transferred into liquid nitrogen container for snap freezing. Later the samples were stored at −80° C.
For Compounds 76b and 78a, 100 mg of brain tissue were weighed, 400 μL of Ice cold PBS was added, and the samples were homogenated using a polytron homogenizer. Before starting the experiment the blade was cleaned with NS, Methanol, Methanol:Water (50:50) followed by NS. […]

Data set [2] relates to PGC-1α. The experiment in a line: In vitro PGC-1α expression in differentiated C2C12 cells (cell ELISA). The data set is classed as cell-based. Here is the method:
Culture conditions: DMEM containing 25 mM glucose with 10% FBS supplementation; grown at 37° C. and 5% CO2.
Drugs: (+)Epicatechin, AICAR (direct activator of AMPK).
Assay Conditions: C2C12 cells were cultured in DMEM supplemented in 10% FBS up to 80% confluence. The cells were further trypsinized and seeded into a 96 well plate at a density of 5000 cells/well (well volume—100 μL) (Day 0). Following attachment, the cells were allowed to reach 80-90% confluence in the plate (typically 48 hours post seeding) and further differentiated using DMEM+2% Horse Serum (200 μL/well). The media was changed every day or at least every alternate day for 5 days to allow myoblasts to differentiate into myotubes. On day 7 (post seeding), the cells were treated with standards and test compounds for PGC-1 α assay.
PGC-1α assay: For the detection of PGC-1α, the cells were incubated with 0.5 μg/ml primary antibody (Merck, WH0010891M3) in PBS-T containing 5% BSA at 4° C. overnight. The cells were then washed three times with PBS-T for 5 minutes and incubated with 1:1000 dilution secondary antibody (Anti-rabbit IgG, HRP-linked Antibody, Cell Signaling) in PBS-T with 1% BSA for 1 hour at RT. Cells were washed three times with PBS-T for 5 minutes The cells were incubated with 100 μl TMB substrate solution for 30 minutes and the reaction was stopped with 100 μl of 2N H2SO4. […] (For plate optical density calculations, a background correction was taken at 540 nm). The final PGC-1α activation % is average of activation of 6 replicates.

[3] abbreviates: Table 3, differentiated C2C12 cells, 0.001 nM, DMSO control = 100%, OD@650 nm.

For orientation: Tmax means the time from dosing to the highest level.

`COc1cc(C2Oc3ccccc3CC2O)ccc1F` (single isomer, unassigned) [Compound 75b, 2-(4-fluoro-3-methoxyphenyl)chroman-3-ol]: the Tmax in data set [1] came to 1 h. In data set [1], this compound returned an AUC0-4 of 238.5399 hr*g/tissue. The “% Activity (PGC-1α expression)” value in data set [2] (Table 3, differentiated C2C12 cells, 0.0001 nM, DMSO control = 100%) is 118%; in data set [2] (setting [3]) it was 125%; in data set [2] (Table 3, differentiated C2C12 cells, 0.01 nM, DMSO control = 100%), 122%; in data set [2] (Table 3, differentiated C2C12 cells, 0.1 nM, DMSO control = 100%), 116%; in data set [2] (Table 3, differentiated C2C12 cells, 1 nM, DMSO control = 100%) it was 120%; in data set [2] (Table 4, differentiated C2C12 cells, 0.01 nM, OD at 5 minutes), 130%.

`Oc1cc(O)c2c(c1)OC(c1ccc(O)c(F)c1)C(O)C2` (single isomer, unassigned) [Compound 76b, 2-(3-fluoro-4-hydroxyphenyl)chromane-3,5,7-triol]: in data set [1], the Tmax came out at 1 h and the AUC0-4 came out at 5.993 hr*g/tissue. For the same compound, in data set [2] (Table 5, differentiated C2C12, 5000 cells/well, 0.01 nM, DMSO = 100), the “% Activity (PGC-1α expression)” value is 128%.

For `Oc1ccc2c(c1)OC(c1ccc(O)c(C(F)(F)F)c1)C(O)C2` (single isomer, unassigned) [Compound 77b, 2-(4-hydroxy-3-(trifluoromethyl)phenyl)chromane-3,7-diol], the “% Activity (PGC-1α expression)” value in data set [2] (Table 6, C2C12 cells, 5000 cells/well, 0.01 nM) is 138%; in data set [2] (Table 7, C2C12 cells, 5000 cells/well, 0.01 nM, DMSO = 100), 135%.

Regarding `Oc1cc(O)c2c(c1)OC(c1ccccc1)C(O)C2` (single isomer, unassigned) [Compound 78a, 2-phenylchromane-3,5,7-triol], in data set [1], the Tmax was 1 h and the AUC0-4 amounted to 29.135 hr*g/tissue. The “% Activity (PGC-1α expression)” value in data set [2] (Table 8, C2C12 cells, 5000 cells/well, 0.01 nM, DMSO = 100) is listed as 128%.

For the compound `Oc1cc(O)c2c(c1)O[C@H](c1ccc(O)c(O)c1)[C@H](O)C2` [Epicatechin, (+)Epicatechin, reference compound], the “% Activity (PGC-1α expression)” value in data set [2] (setting [3]) is listed as 119%; in data set [2] (Table 4, differentiated C2C12 cells, 0.001 nM, OD at 5 minutes) it was 120%; in data set [2] (Table 5, differentiated C2C12, 5000 cells/well, 0.001 nM, DMSO = 100), 133%; in data set [2] (Table 6, C2C12 cells, 5000 cells/well, 0.001 nM), 127%; in data set [2] (Table 7, C2C12 cells, 5000 cells/well, 0.001 nM, DMSO = 100) it was 133%; in data set [2] (Table 8, C2C12 cells, 5000 cells/well, 0.001 nM, DMSO = 100), 139%.
